The text below walks through data of patent US11160871B2, “SSTR-targeted conjugates and particles and formulations thereof” (TARVEDA THERAPEUTICS, INC., priority 2015, dated 2021).

Series [1] relates to NCI-H524 human small cell lung cancer cells. Put plainly: cells. Format: cell-based. The protocol:
Conjugates of the present invention were assessed in an in vitro assay evaluating inhibition of cell proliferation. NCI-H524 (ATCC) human small cell lung cancer cells were plated in 96 well, V-bottomed plates (Costar) at a concentration of 5,000 cells/well. 24 hours later, cells were treated with either conjugate for 2 hours and further incubated 70 hours, or for octreotide competition experiments, treated with 100 μM octreotide for 30 min, and then treated with conjugate for 2 hours, and further incubated for 70 hours. Conjugate starting dose was 20 μM and three fold serial dilutions were done for a total of ten points. After 2 hours of treatment, cells were spun down, the drug containing media was removed, and fresh complete medium was added and used to resuspend the cells, which were spun again. After removal of the wash media, the cells were resuspended in complete medium, and then transferred into white walled, flat bottomed 96 well plates. […] Proliferation was measured using CellTiter Glo reagent using the standard protocol (Promega) and a Glomax multi+ detection system (Promega). Percent proliferation inhibition was calculated using the following formula: % inhibition=(control−treatment)/control*100. Control is defined as vehicle alone. IC50 curves were generated using the nonlinear regression analysis (four parameter) with GraphPad Prism 6.

The test system of a further series is NCI-H69 SCLC tumors. Put plainly: H69 tumor DM-1 levels by LC/MS-MS. Type of series: in vivo, mice. Particulars: 1 mg/kg; 24 hour time point. The protocol: (§1) To examine the ability of conjugates of the present invention to accumulate in tumors, a murine cancer model was used. All mice were treated in accordance with the OLAW Public Health Service Policy on Human Care and Use of Laboratory Animals and the ILAR Guide for the Care and Use of Laboratory Animals. All in vivo studies were conducted following the protocols approved by the Blend Therapeutics Institutional Animal Care and Use Committee. Animals were inoculated with 2.5×10^6 NCI-H69 SCLC (small cell lung cancer) cells in 1:1 RPMI 1640 (Invitrogen, Carlsbad, Calif.)/Matrigel® (BD Biosciences, San Jose, Calif.) via subcutaneous injection to the right flank. Tumors were allowed to reach an approximate volume of ˜500 mm3. Animals were then randomized into treatment groups of 3 animals per time point and were dosed at 1 mg/kg (10% propylene glycol in water for injection for free conjugates, or 10% sucrose for nanoparticles), or 0.4 mg/kg for DM-1 (10% propylene glycol in water for injection). The 24 hour time point was used as a benchmark across conjugates.
(§2) Tumor DM-1 levels were determined by liquid chromatography mass spectrometry (LC/MS-MS). Four volumes of 5 mM 6-maleimidohexanoic acid to 1 part tumor v/w was added and homogenized for about 10-15 seconds with a handheld homogenizer. 10 μL of 500 mM Tris(2-carboxyethyl)phosphine was added to 100 uL of tumor homogenate, mixed well and incubated at room temperature for about 5-15 min. 200-300 uL of acetonitrile was used to precipitate proteins in tumor homogenate, samples were centrifuged for 5 min, and supernatant was injected onto LC/MS-MS system for DM-1 analysis.

Series [2] can be described thus: H69 tumor DM-1 levels by LC/MS-MS. Type of series: in vivo, mice. As to conditions: mouse, tumor (NCI-H69 SCLC xenograft); 0.4 mg/kg for DM-1; 24 hour time point. The protocol:
as §1, §2

Series [3] is described as follows: Single dose exploratory toxicity study. Format: in vivo, SD female rat. As to conditions: 0.4 mg/kg. The protocol: Single dose exploratory toxicity studies in SD female rat (dose 0.5 mg/kg to 1.5 mg/kg) for 7-10 days were carried out. Clinical observations, body weight, clinical blood chemistry, histopathology, and complete blood counts were assessed. In the 10-day study, DM1 (0.4 mg/kg) was compared to Conjugate 57 at an equivalent dose of DM1 (1.0 mg/kg of conjugate) and at a 50% higher dose (1.5 mg/kg of conjugate).
Decreased white blood cell (WBC) count is a known dose limiting toxicity of DM1. WBC count was tracked in all groups.
Liver toxicity is also a know dose limiting toxicity of DM1. Alanine transaminase (ALT) and aspartate aminotransferase (AST) are markers of liver toxicity and were measured in all groups.

Another series addresses SSTR2 (Homo sapiens, UniProt P30874). Also noted: expressed in transfected cells. Particulars: read-out: Octreoscan Ki; cited from earlier work.
In another series the target is SSTR5 (Homo sapiens, UniProt P35346). Particulars: read-out: Octreoscan Ki; cited from earlier work.
In a further series the target is SSTR3 (Homo sapiens, UniProt P32745). As to conditions: read-out: Octreoscan Ki; cited from earlier work.
The target in a further series is SSTR4 (Homo sapiens, UniProt P31391). Particulars: read-out: Octreoscan Ki; cited from earlier work.
A further series deals with SSTR1 (Homo sapiens, UniProt P30872). Particulars: read-out: Octreoscan Ki; cited from earlier work.

Read-outs that look alike come from different tables or passages of the source.

SSTR5, sequence (P35346 whole entry): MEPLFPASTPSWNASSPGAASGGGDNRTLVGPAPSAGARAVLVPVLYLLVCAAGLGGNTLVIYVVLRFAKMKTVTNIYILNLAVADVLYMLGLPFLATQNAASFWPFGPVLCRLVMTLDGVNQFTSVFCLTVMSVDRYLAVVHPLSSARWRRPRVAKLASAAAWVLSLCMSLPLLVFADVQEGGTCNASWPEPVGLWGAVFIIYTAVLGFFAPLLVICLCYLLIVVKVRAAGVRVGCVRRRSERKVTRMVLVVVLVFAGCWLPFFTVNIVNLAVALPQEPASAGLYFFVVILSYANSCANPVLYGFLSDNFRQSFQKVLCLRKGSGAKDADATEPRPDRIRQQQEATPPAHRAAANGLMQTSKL
SSTR3, sequence (P32745 whole entry): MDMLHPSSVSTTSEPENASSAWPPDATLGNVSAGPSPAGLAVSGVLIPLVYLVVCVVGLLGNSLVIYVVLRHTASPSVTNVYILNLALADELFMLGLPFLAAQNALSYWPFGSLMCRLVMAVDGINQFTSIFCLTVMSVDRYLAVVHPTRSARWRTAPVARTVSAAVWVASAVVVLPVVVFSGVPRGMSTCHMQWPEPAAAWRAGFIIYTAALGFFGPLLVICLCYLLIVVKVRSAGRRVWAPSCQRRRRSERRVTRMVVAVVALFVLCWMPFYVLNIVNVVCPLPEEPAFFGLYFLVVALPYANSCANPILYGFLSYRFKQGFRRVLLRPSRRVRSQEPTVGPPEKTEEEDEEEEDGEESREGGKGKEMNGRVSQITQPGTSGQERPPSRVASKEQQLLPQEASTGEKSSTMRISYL
SSTR2, sequence (P30874 whole entry): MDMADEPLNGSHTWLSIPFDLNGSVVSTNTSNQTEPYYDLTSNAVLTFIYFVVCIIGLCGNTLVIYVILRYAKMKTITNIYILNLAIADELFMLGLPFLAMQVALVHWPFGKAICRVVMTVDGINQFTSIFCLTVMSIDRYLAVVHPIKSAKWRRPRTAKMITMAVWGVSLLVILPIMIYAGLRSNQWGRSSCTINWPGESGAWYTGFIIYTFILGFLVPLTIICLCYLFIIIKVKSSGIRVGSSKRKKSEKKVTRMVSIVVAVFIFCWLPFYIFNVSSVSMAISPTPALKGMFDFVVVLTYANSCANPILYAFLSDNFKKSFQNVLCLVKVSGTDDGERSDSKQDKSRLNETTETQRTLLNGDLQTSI
SSTR4, sequence (P31391 whole entry): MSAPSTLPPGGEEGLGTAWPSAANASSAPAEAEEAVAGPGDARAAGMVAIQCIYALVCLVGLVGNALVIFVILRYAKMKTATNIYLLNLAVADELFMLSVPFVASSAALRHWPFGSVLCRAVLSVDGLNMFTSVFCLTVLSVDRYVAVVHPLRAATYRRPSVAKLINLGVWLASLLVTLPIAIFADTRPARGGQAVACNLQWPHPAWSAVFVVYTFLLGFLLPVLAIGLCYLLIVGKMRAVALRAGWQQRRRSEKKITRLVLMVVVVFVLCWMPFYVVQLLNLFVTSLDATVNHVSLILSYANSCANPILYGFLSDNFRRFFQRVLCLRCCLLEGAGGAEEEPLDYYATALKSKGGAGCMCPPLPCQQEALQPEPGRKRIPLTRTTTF
SSTR1, sequence (P30872 whole entry): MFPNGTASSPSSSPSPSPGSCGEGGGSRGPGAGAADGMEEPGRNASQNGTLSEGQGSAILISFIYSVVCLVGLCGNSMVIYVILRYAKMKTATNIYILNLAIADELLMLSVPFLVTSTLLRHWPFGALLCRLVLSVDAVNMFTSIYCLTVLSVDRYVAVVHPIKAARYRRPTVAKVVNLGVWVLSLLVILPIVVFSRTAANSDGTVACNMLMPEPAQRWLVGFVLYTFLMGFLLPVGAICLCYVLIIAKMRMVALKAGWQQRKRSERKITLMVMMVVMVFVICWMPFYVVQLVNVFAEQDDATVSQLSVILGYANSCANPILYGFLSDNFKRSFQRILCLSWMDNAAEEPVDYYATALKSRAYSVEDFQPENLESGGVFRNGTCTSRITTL

Turning to `COc1cc2cc(c1Cl)N(C)C(=O)C[C@H](OC(=O)C(C)N(C)C(=O)CCSSCCC(=O)NCCCOCCOCCOCCCNC(=O)CC[C@H]1C(=O)N[C@@H](Cc3ccc(O)cc3)C(=O)N[C@H](Cc3c[nH]c4ccccc34)C(=O)N[C@@H](CCCCN)C(=O)N[C@@H]([C@@H](C)O)C(=O)N[C@@H](Cc3ccccc3)C(=O)N1C)[C@]1(C)O[C@H]1[C@H](C)[C@@H]1C[C@@](O)(NC(=O)O1)[C@H](OC)/C=C/C=C(\C)C2` (stereo partly drawn) [Conjugate 18], the IC50 was 1480 nM in [1] (2 hours treatment, 70 hours further incubation, read-out: H524 IC50) and 2160 nM in [1] (read-out: H524 IC50+ 100 uM octreotide, 100 μM octreotide for 30 min before conjugate). The “H69 tumor DM-1 levels” value with NCI-H69 SCLC tumors came out at 86.3 nM.

`COc1cc2cc(c1Cl)N(C)C(=O)C[C@H](OC(=O)[C@H](C)N(C)C(=O)CCSSCCCN[C@H](Cc1ccccc1)C(=O)N[C@H]1CSSC[C@@H](C(=O)N[C@H](C(=O)O)[C@@H](C)O)NC(=O)[C@H]([C@@H](C)O)NC(=O)[C@H](CCCCN)NC(=O)[C@@H](Cc3c[nH]c4ccccc34)NC(=O)[C@H](Cc3ccc(O)cc3)NC1=O)[C@]1(C)O[C@H]1[C@H](C)[C@@H]1C[C@@](O)(NC(=O)O1)[C@H](OC)/C=C/C=C(\C)C2` [Conjugate 80]: the “H69 tumor DM-1 levels” value with NCI-H69 SCLC tumors was 91.2 nM.

Regarding `COc1cc2cc(c1Cl)N(C)C(=O)C[C@H](OC(=O)[C@H](C)N(C)C(=O)CCSSCCOc1ccc(C[C@@H](N)C(=O)N[C@H]3CSSC[C@@H](C(=O)N[C@H](C(=O)O)[C@@H](C)O)NC(=O)[C@H]([C@@H](C)O)NC(=O)[C@H](CCCCN)NC(=O)[C@@H](Cc4c[nH]c5ccccc45)NC(=O)[C@H](Cc4ccc(O)cc4)NC3=O)cc1)[C@]1(C)O[C@H]1[C@H](C)[C@@H]1C[C@@](O)(NC(=O)O1)[C@H](OC)/C=C/C=C(\C)C2` [Conjugate 111], the “H69 tumor DM-1 levels” value in the series with NCI-H69 SCLC tumors worked out at 82.6 nM.

`COc1cc2cc(c1Cl)N(C)C(=O)C[C@H](OC(=O)[C@H](C)N(C)C(=O)CCSSCCC(=O)NCc1ccc(C[C@@H](N)C(=O)N[C@H]3CSSC[C@@H](C(=O)N[C@H](C(=O)O)[C@@H](C)O)NC(=O)[C@H]([C@@H](C)O)NC(=O)[C@H](CCCCN)NC(=O)[C@@H](Cc4c[nH]c5ccccc45)NC(=O)[C@H](Cc4ccc(O)cc4)NC3=O)cc1)[C@]1(C)O[C@H]1[C@H](C)[C@@H]1C[C@@](O)(NC(=O)O1)[C@H](OC)/C=C/C=C(\C)C2` [Conjugate 115]: in the series on NCI-H69 SCLC tumors, the “H69 tumor DM-1 levels” value was determined as 37.1 nM.

In the case of `COc1cc2cc(c1Cl)N(C)C(=O)C[C@H](OC(=O)[C@H](C)N(C)C(=O)CCS)C1(C)O[C@H]1[C@H](C)[C@@H]1C[C@@](O)(NC(=O)O1)[C@H](OC)/C=C/C=C(\C)C2` (stereo partly drawn) [DM-1, mertansine, reference compound], the IC50 in series [1] (Homo sapiens, NCI-H524, read-out: H524 IC50 (nM)) turned out to be 90 nM. The IC50 in series [1] (Homo sapiens, NCI-H524, read-out: H524 IC50+ 100 uM octreotide (nM)) worked out at 90 nM. In addition, in series [2], the concentration at 24 h came out at 31.6 nM. In addition, in [3], the “AST and ALT” value was “dramatic increases in AST and ALT at day 5”; the “Day 5 weight change (%)” value was −18%; the WBC count entry is listed as “dramatic decreases in WBC count”; the clinical outcome is on record as “had to be euthanized on day 5 because they were moribund”.

As to Indium-111 pentetreotide [Octreoscan], the Ki on SSTR2 was 22 nM; on SSTR5 it was 237 nM; on SSTR3 it was 182 nM; on SSTR4 it was > 1000 nM; on SSTR1, > 10000 nM.

What is called IC50 is the midpoint of a concentration-inhibition curve. The term Ki denotes the dissociation constant of the complex between target and ligand, obtained from inhibition or displacement.
